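GI50 = concentration required for 50% inhibition of growth. TGI marks complete inhibition of growth.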
What was measured:
Assay in all cases: NCI-60 cell line screen, 384-well format
RPMI-8226 leukemia = test system: RPMI-8226 leukemia
MDA-MB-468 breast = test system: MDA-MB-468 breast
CAKI-1 renal = test system: CAKI-1 renal
NCI-H23 lung = test system: NCI-H23 lung
HL-60(TB) leukemia = test system: HL-60(TB) leukemia
SR leukemia = test system: SR leukemia
SK-MEL-28 melanoma = test system: SK-MEL-28 melanoma
NCI/ADR-RES ovarian = test system: NCI/ADR-RES ovarian
MOLT-4 leukemia = test system: MOLT-4 leukemia
NCI-H322M lung = test system: NCI-H322M lung
HT29 colon = test system: HT29 colon
EKVX NSCLC = test system: EKVX NSCLC
HCT-15 colon = test system: HCT-15 colon
HOP-62 NSCLC = test system: HOP-62 NSCLC
OVCAR-4 ovarian = test system: OVCAR-4 ovarian
OVCAR-5 ovarian = test system: OVCAR-5 ovarian
NCI-H226 lung = test system: NCI-H226 lung
HOP-92 NSCLC = test system: HOP-92 NSCLC
A549 NSCLC = test system: A549 NSCLC
KM12 colon = test system: KM12 colon
A498 renal = test system: A498 renal
T-47D breast = test system: T-47D breast
ACHN renal = test system: ACHN renal
UACC-62 melanoma = test system: UACC-62 melanoma
MDA-MB-231 breast = test system: MDA-MB-231 breast
SN12C renal = test system: SN12C renal
OVCAR-8 ovarian = test system: OVCAR-8 ovarian
NCI-H460 NSCLC = test system: NCI-H460 NSCLC
SF-295 CNS = test system: SF-295 CNS
MDA-MB-435 melanoma = test system: MDA-MB-435 melanoma
U251 glioblastoma = test system: U251 glioblastoma
RXF 393 renal = test system: RXF 393 renal
SF-268 CNS = test system: SF-268 CNS
BT-549 breast = test system: BT-549 breast
HCT-116 colon = test system: HCT-116 colon
M14 melanoma = test system: M14 melanoma
IGROV1 ovarian = test system: IGROV1 ovarian
PC-3 prostate = test system: PC-3 prostate
MCF7 breast = test system: MCF7 breast
HS 578T breast = test system: HS 578T breast
SF-539 CNS = test system: SF-539 CNS
HCC-2998 colon = test system: HCC-2998 colon
SNB-19 CNS = test system: SNB-19 CNS
COLO 205 colon = test system: COLO 205 colon
OVCAR-3 ovarian = test system: OVCAR-3 ovarian
SNB-75 CNS = test system: SNB-75 CNS
SK-MEL-5 melanoma = test system: SK-MEL-5 melanoma
SK-OV-3 ovarian = test system: SK-OV-3 ovarian
UACC-257 melanoma = test system: UACC-257 melanoma
TK-10 renal = test system: TK-10 renal
NCI-H522 lung = test system: NCI-H522 lung
DU-145 prostate = test system: DU-145 prostate
LOX IMVI melanoma = test system: LOX IMVI melanoma
MALME-3M melanoma = test system: MALME-3M melanoma

O=c1[nH]cnc2[nH]ncc12
GI50 (RPMI-8226 leukemia): 24 µM | TGI (RPMI-8226 leukemia): 60.9 µM | GI50 (MDA-MB-468 breast): 85.2 µM | GI50 (CAKI-1 renal): 36.8 µM | GI50 (NCI-H23 lung): 98.4 µM | GI50 (HL-60(TB) leukemia): 74.5 µM

CC(=O)O/N=C1/C(c2c(O)[nH]c3cc(Br)ccc23)=Nc2ccccc21
GI50 (SR leukemia): 1140 nM | TGI (SR leukemia): 2350 nM | GI50 (SK-MEL-28 melanoma): 1670 nM | TGI (SK-MEL-28 melanoma): 3.07 µM | GI50 (NCI/ADR-RES ovarian): 1240 nM | TGI (NCI/ADR-RES ovarian): 2520 nM | GI50 (MOLT-4 leukemia): 1900 nM | TGI (MOLT-4 leukemia): 3.32 µM | GI50 (NCI-H322M lung): 727 nM | TGI (NCI-H322M lung): 2010 nM | GI50 (HT29 colon): 1460 nM | TGI (HT29 colon): 2800 nM | GI50 (EKVX NSCLC): 505 nM | TGI (EKVX NSCLC): 2030 nM | GI50 (HCT-15 colon): 686 nM | TGI (HCT-15 colon): 1950 nM | GI50 (HOP-62 NSCLC): 1070 nM | TGI (HOP-62 NSCLC): 2260 nM | GI50 (RPMI-8226 leukemia): 0.685 µM | TGI (RPMI-8226 leukemia): 1.86 µM | GI50 (OVCAR-4 ovarian): 1250 nM | TGI (OVCAR-4 ovarian): 2540 nM | GI50 (OVCAR-5 ovarian): 1980 nM | TGI (OVCAR-5 ovarian): 3.4 µM | GI50 (NCI-H226 lung): 257 nM | TGI (NCI-H226 lung): 1080 nM | GI50 (HOP-92 NSCLC): 1250 nM | TGI (HOP-92 NSCLC): 2650 nM | GI50 (A549 NSCLC): 1460 nM | TGI (A549 NSCLC): 2840 nM | GI50 (KM12 colon): 532 nM | TGI (KM12 colon): 2010 nM | GI50 (MDA-MB-468 breast): 1.32 µM | TGI (MDA-MB-468 breast): 2610 nM | GI50 (A498 renal): 182 nM | TGI (A498 renal): 496 nM | GI50 (T-47D breast): 1760 nM | TGI (T-47D breast): 3.23 µM | GI50 (ACHN renal): 472 nM | TGI (ACHN renal): 1660 nM | GI50 (UACC-62 melanoma): 636 nM | TGI (UACC-62 melanoma): 1890 nM | GI50 (MDA-MB-231 breast): 1300 nM | TGI (MDA-MB-231 breast): 2650 nM | GI50 (SN12C renal): 53.8 nM | TGI (SN12C renal): 710 nM | GI50 (OVCAR-8 ovarian): 1100 nM | TGI (OVCAR-8 ovarian): 2310 nM | GI50 (NCI-H460 NSCLC): 798 nM | TGI (NCI-H460 NSCLC): 2070 nM | GI50 (SF-295 CNS): 1000 nM | TGI (SF-295 CNS): 2320 nM | GI50 (MDA-MB-435 melanoma): 1340 nM | TGI (MDA-MB-435 melanoma): 2630 nM | GI50 (U251 glioblastoma): 1080 nM | TGI (U251 glioblastoma): 2280 nM | GI50 (RXF 393 renal): 1010 nM | TGI (RXF 393 renal): 2220 nM | GI50 (SF-268 CNS): 1050 nM | TGI (SF-268 CNS): 2250 nM | GI50 (BT-549 breast): 574 nM | TGI (BT-549 breast): 1910 nM | GI50 (HCT-116 colon): 1030 nM | TGI (HCT-116 colon): 2230 nM | GI50 (M14 melanoma): 1610 nM | TGI (M14 melanoma): 2970 nM | GI50 (IGROV1 ovarian): 157 nM | TGI (IGROV1 ovarian): 1350 nM | GI50 (PC-3 prostate): 462 nM | TGI (PC-3 prostate): 1780 nM | GI50 (CAKI-1 renal): 0.675 µM | TGI (CAKI-1 renal): 1970 nM | GI50 (MCF7 breast): 582 nM | TGI (MCF7 breast): 2370 nM | GI50 (HS 578T breast): 215 nM | TGI (HS 578T breast): 860 nM | GI50 (NCI-H23 lung): 1.47 µM | TGI (NCI-H23 lung): 2860 nM | GI50 (SF-539 CNS): 505 nM | TGI (SF-539 CNS): 1690 nM | GI50 (HCC-2998 colon): 540 nM | TGI (HCC-2998 colon): 1980 nM | GI50 (HL-60(TB) leukemia): 0.495 µM | TGI (HL-60(TB) leukemia): 1150 nM | GI50 (SNB-19 CNS): 1470 nM | TGI (SNB-19 CNS): 2870 nM | GI50 (COLO 205 colon): 1270 nM | TGI (COLO 205 colon): 2530 nM | GI50 (OVCAR-3 ovarian): 186 nM | TGI (OVCAR-3 ovarian): 946 nM | GI50 (SNB-75 CNS): 554 nM | TGI (SNB-75 CNS): 2040 nM | GI50 (SK-MEL-5 melanoma): 312 nM | TGI (SK-MEL-5 melanoma): 1660 nM | GI50 (SK-OV-3 ovarian): 275 nM | TGI (SK-OV-3 ovarian): 1330 nM | GI50 (UACC-257 melanoma): 1720 nM | TGI (UACC-257 melanoma): 3.1 µM | GI50 (TK-10 renal): 356 nM | TGI (TK-10 renal): 1590 nM | GI50 (NCI-H522 lung): 1480 nM | TGI (NCI-H522 lung): 2810 nM | GI50 (DU-145 prostate): 1050 nM | TGI (DU-145 prostate): 2290 nM | GI50 (LOX IMVI melanoma): 1110 nM | TGI (LOX IMVI melanoma): 2310 nM | GI50 (MALME-3M melanoma): 1990 nM | TGI (MALME-3M melanoma): 4.24 µM
